Experimental data: patent US20060183902A1, “Dihydroindolyl methanones as alpha 1a/1d adrenoreceptor modulators for the treatment of benign prostatic hypertrophy and lower urinary tract symptoms” (priority 2005, published 2006)

What was measured:
[1] = biological target: T1, α1a-AR (Homo sapiens, UniProt P35348); experiment: α1-Adrenergic receptor radio-ligand (125I-HEAT) binding assay, α1a subtype; settings: COS-7 cell membranes transfected with α1a-AR, 125I-HEAT 50 pM; read-out: Receptor Binding, Ki α1a-AR
T1 construct: expressed in transfected cells; host or cells: COS-7
T1 sequence (P35348 1-466): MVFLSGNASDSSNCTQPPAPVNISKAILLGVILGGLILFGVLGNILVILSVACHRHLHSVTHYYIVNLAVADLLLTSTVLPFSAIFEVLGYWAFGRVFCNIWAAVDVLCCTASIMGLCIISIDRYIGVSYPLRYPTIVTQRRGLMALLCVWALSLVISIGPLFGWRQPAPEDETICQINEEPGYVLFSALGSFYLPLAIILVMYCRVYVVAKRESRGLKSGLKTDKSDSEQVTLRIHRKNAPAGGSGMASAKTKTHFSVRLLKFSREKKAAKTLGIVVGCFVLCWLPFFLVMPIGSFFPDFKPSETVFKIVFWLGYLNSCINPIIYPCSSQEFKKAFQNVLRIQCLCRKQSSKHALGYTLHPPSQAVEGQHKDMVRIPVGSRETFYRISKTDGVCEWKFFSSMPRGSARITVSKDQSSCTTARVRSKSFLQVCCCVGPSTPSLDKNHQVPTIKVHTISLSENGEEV
Outline: (§1)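 Membranes from COS-7 cells transfected with a single α1-AR subtype, incubated 1 h at rt with 50 pM 125I-HEAT and compound (1 pM–10 µM, half-log steps, final) in Tris/EDTA/NaCl pH 7.4. Bound radioactivity collected by GF/C filtration and scintillation counting, triplicates; Ki derived.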

[2] = biological target: T2, α1d-AR (Homo sapiens, UniProt P25100); experiment: α1-Adrenergic receptor radio-ligand (125I-HEAT) binding assay, α1d subtype; settings: COS-7 cell membranes transfected with α1d-AR, 125I-HEAT 50 pM; read-out: Receptor Binding, Ki α1d-AR
T2 construct: expressed in transfected cells; host or cells: COS-7
T2 sequence (P25100 1-572): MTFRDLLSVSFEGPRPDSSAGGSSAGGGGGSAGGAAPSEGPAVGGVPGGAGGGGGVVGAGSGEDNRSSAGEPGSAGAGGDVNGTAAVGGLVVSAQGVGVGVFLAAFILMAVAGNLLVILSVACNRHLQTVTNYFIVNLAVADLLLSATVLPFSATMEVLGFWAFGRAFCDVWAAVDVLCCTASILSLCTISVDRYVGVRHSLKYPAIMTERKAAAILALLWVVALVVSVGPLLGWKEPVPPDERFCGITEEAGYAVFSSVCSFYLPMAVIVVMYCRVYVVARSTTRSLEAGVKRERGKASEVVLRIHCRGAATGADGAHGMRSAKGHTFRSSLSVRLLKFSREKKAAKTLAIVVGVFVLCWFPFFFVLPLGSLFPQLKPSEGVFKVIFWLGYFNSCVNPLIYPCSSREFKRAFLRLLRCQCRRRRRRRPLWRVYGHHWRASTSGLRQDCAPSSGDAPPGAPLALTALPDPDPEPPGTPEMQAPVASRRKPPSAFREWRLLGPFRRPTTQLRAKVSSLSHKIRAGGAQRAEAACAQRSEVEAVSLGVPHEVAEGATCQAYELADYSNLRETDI
Outline: as §1

[3] = biological target: T3, α1b-AR (Homo sapiens, UniProt P35368); experiment: α1-Adrenergic receptor radio-ligand (125I-HEAT) binding assay, α1b subtype; settings: COS-7 cell membranes transfected with α1b-AR, 125I-HEAT 50 pM; read-out: Receptor Binding, Ki α1b-AR
T3 construct: expressed in transfected cells; host or cells: COS-7
T3 sequence (P35368 1-520): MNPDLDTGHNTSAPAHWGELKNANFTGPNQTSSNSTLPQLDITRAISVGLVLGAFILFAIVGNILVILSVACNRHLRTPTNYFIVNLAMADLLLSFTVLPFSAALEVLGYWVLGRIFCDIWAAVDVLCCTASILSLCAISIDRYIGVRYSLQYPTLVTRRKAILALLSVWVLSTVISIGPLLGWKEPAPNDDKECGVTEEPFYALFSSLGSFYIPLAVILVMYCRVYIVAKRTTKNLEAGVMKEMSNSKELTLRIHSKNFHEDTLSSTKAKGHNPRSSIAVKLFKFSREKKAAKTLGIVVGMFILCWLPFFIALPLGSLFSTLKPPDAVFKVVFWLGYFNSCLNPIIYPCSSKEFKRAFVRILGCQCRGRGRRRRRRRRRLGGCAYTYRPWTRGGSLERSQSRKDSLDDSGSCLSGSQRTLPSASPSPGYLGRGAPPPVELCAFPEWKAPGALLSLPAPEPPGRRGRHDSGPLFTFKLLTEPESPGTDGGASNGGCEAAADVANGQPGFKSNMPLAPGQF
Outline: as §1

[4] = system: BPH patients; settings: clinical studies; cited from earlier work
[5] = system: α1a and α1d subtypes over the α1b subtype; settings: cited from earlier work
[6] = system: normal rats and rats with bladder hypertrophy secondary to outlet obstruction; settings: intrathecally administered; cited from earlier work

Row | Ki [1] [nM] | Ki [2] [nM] | Ki [3] [nM] | melting point [°C] | SMILES | effect on obstructive and irritative symptoms of BPH [4] | selective for the α1a and α1d subtypes over the α1b subtype [5] | micturition pressure [6]
1 | 67 | 18 | 1300 | 79 to 81 | COc1cccc(OC)c1CNc1ccc2c(c1)CCN2C(=O)c1cccc(CN2CCN(c3ccccc3OC(C)C)CC2)c1 [Cpd 25, [5-(2,6-dimethoxy-benzylamino)-2,3-dihydro-indol-1-yl]-{3-[4-(2-isopropoxy-phenyl)-piperazin-1-ylmethyl]-phenyl}-methanone] | – | – | –
2 | 34 | 2 | 200 | 229 to 232 | COc1cccc(OC)c1C(=O)Nc1ccc2c(c1)CCN2C(=O)c1cccc(CN2CCN(c3ccccc3OC(C)C)CC2)c1 [Cpd 26, N-(1-{3-[4-(2-isopropoxy-phenyl)-piperazin-1-ylmethyl]-benzoyl}-2,3-dihydro-1H-indol-5-yl)-2,6-dimethoxy-benzamide] | – | – | –
3 | 2.7 | 9.4 | 610 | 137 to 139 | CC(C)Oc1ccccc1N1CCN(Cc2cccc(C(=O)N3CCc4ccc(NS(=O)(=O)c5cccc6c(N(C)C)cccc56)cc43)c2)CC1 [Cpd 32, 5-dimethylamino-naphthalene-1-sulfonic acid (1-{3-[4-(2-isopropoxy-phenyl)-piperazin-1-ylmethyl]-benzoyl}-2,3-dihydro-1H-indol-6-yl)-amide] | – | – | –
4 | – | – | – | – | CCOc1ccccc1OCCN[C@H](C)Cc1ccc(OC)c(S(N)(=O)=O)c1 [Tamsulosin] | improvement in both obstructive and irritative symptoms | about 15 fold | –
5 | – | – | – | – | COc1cc2nc(N3CCN(C(=O)C4COc5ccccc5O4)CC3)nc(N)c2cc1OC (stereo not drawn) [doxazosin] | – | – | decrease in micturition pressure
